# Measurements reported in patent US7388014B2, “Quinazoline derivatives and therapeutic use thereof” (Rexahn Pharmaceuticals, Inc., priority 2004, dated 2008).
# What was measured:
# Type in all cases: cell-based, Human
# A549 = experiment: Cell growth inhibition assay (SRB), A549; settings: A549 (lung), 96 hours
# Excerpt: (§1) Cancer cells used in this study to determine the effect of quinazoline compounds were obtained from the following sources: Human OVCAR-3 (ovary), MCF-7 (breast, hormone-dependent), Hs 578T (breast), MDA-MB-231 (breast), HeLa (cervix), PC3 (prostate), HepG2 (liver), A549 (lung), Caki-1 (kidney), HT-29 (colon), HCT116 (colon) and PANC-1 (pancreas) from the American Type Culture Collection (ATCC) (Manassas, Va.); U251 (brain) from Riken (Japan); MKN-45 (stomach) from DSMZ (Germany); UMRC2 (kidney) and Lox IMVI (melanoma) from the United States National Cancer Institute (Bethesda, Md.). All cell lines except Hs 578T, MDA-MB-231, HCT116, UMRC2, Caki-1 and PANC-1 were grown in RPMI1640 medium (Invitrogen, Carlsbad, Calif.) supplemented with 10% fetal bovine serum (“FBS”), 1 mM sodium pyruvate, 10 mM HEPES and 100 U/ml penicillin and 100 μg/ml streptomycin (“P/S”). Hs 578T, MDA-MB-231, HCT116, UMRC2, Caki-1 and PANC-1 cells were maintained in Dulbecco's modified Eagle's medium (“DMEM”, Invitrogen) supplemented with 10% FBS, P/S, 10 mM HEPES and 2 mM L-glutamine. All cells were incubated at 37° C. under humidified 5% CO2.
# (§2) The growth inhibition of the substituted quinazoline derivative compounds against a variety of human tumor cells was evaluated. The relative importance of particular substituent groups on the compounds was also studied. The substituted quinazoline derivative compounds, prepared as described above, were tested, along with DMSO as a control.
# (§3) The growth inhibition assay of various compounds against 15 human tumor cell lines was performed using the Sulforhodamnine B (“SRB”) method (Skehan et al., J. National Cancer Institute, 82: 1107-1112 (1990)). Briefly, exponentially growing tumor cells were seeded into a 96-well plate at a density of 2-3×10^3 cells/well and treated with quinazoline compounds the next day. Triplicate wells were used for each treatment. The cells were. incubated with the various compounds for 96 hours at 37° C. in a humidified 5% CO2 atmosphere. After 96-hour incubation, cells were fixed with 10% trichloroacetic acid (“TCA”), incubated for 1 hour at 4° C., and washed 3 times with tap water. Subsequently cells were stained with 0.4% sulforhodamine B in 1% acetic acid for 30 minutes, washed 4 times with 1% acetic acid, and air-dried again. After 5 minutes agitation in 10 mM Tris solution, the absorbance of each well was measured at 530 nm using Benchmark Plus Microplate reader (Bio-Rad Laboratories, Hercules, Calif.).
# (§4) To translate the OD530 values into the number of live cells in each well, the OD530 values were compared to those on standard OD530—versus—cell number curves generated for each cell line. The percent survival was calculated using the formula: % Survival=live cell number [test]/live cell number [control]×100
# (§5) The IC50 values were calculated by non-linear regression analysis.
# HepG2 = experiment: Cell growth inhibition assay (SRB), HepG2; settings: HepG2 (liver), 96 hours, read-out: Inhibition of cell growth (IC50, μM) HepG 2
# Excerpt: as §1, §2, §3, §4, §5
# MKN-45 = experiment: Cell growth inhibition assay (SRB), MKN-45; settings: MKN-45 (stomach), 96 hours
# Excerpt: as §1, §2, §3, §4, §5
# PANC-1 = experiment: Cell growth inhibition assay (SRB), PANC-1; settings: PANC-1 (pancreas), 96 hours
# Excerpt: as §1, §2, §3, §4, §5
# HT-29 = experiment: Cell growth inhibition assay (SRB), HT-29; settings: HT-29 (colon), 96 hours
# Excerpt: as §1, §2, §3, §4, §5
# PC3 = experiment: Cell growth inhibition assay (SRB), PC3; settings: PC3 (prostate), 96 hours
# Excerpt: as §1, §2, §3, §4, §5
# U251 = experiment: Cell growth inhibition assay (SRB), U251; settings: U251 (brain), 96 hours
# Excerpt: as §1, §2, §3, §4, §5
# HeLa = experiment: Cell growth inhibition assay (SRB), HeLa; settings: HeLa (cervix), 96 hours
# Excerpt: as §1, §2, §3, §4, §5
# Lox IMVI = experiment: Cell growth inhibition assay (SRB), Lox IMVI; settings: Lox IMVI (melanoma), 96 hours
# Excerpt: as §1, §2, §3, §4, §5
# OVCAR-3 = experiment: Cell growth inhibition assay (SRB), OVCAR-3; settings: OVCAR-3 (ovary), 96 hours
# Excerpt: as §1, §2, §3, §4, §5
# MCF-7 = experiment: Cell growth inhibition assay (SRB), MCF-7; settings: MCF-7 (breast, hormone-dependent), 96 hours
# Excerpt: as §1, §2, §3, §4, §5
# MDA-MB-231 = experiment: Cell growth inhibition assay (SRB), MDA-MB-231; settings: MDA-MB-231 (breast), 96 hours
# Excerpt: as §1, §2, §3, §4, §5
# Hs 578T = experiment: Cell growth inhibition assay (SRB), Hs 578T; settings: Hs 578T (breast), 96 hours
# Excerpt: as §1, §2, §3, §4, §5
# UMRC2 = experiment: Cell growth inhibition assay (SRB), UMRC2; settings: UMRC2 (kidney), 96 hours
# Excerpt: as §1, §2, §3, §4, §5
# Caki-1 = experiment: Cell growth inhibition assay (SRB), Caki-1; settings: Caki-1 (kidney), 96 hours
# Excerpt: as §1, §2, §3, §4, §5
Compound,IC50 (A549) [µM],IC50 (HepG2) [µM],IC50 (MKN-45) [µM],IC50 (PANC-1) [µM],IC50 (HT-29) [µM],IC50 (PC3) [µM],IC50 (U251) [µM],IC50 (HeLa) [µM],IC50 (Lox IMVI) [µM],IC50 (OVCAR-3) [µM],IC50 (MCF-7) [µM],IC50 (MDA-MB-231) [µM],IC50 (Hs 578T) [µM],IC50 (UMRC2) [µM],IC50 (Caki-1) [µM]
Fc1cccc(CCNc2ncnc3ccc(Br)cc23)c1 [RX-1242],2.4,0.9,> 3,> 3,> 3,> 3,0.56,> 3,0.73,> 3,0.58,0.88,1.03,1.29,2.39
Cn1cnc2cc3ncnc(NCc4cccc(F)c4)c3cc21 [RX-1881],> 3,1.29,> 3,> 3,> 3,> 3,0.91,> 3,> 3,> 3,0.68,> 3,> 3,> 3,2.34
Fc1cccc(CCNc2ncnc3ccc(I)cc23)c1 [RX-1668],> 3,0.3,> 3,1.83,> 3,> 3,0.27,> 3,> 3,> 3,0.23,> 3,0.89,1.83,2.93
Cc1cccc2ncnc(NCCc3ccc(F)cc3)c12 [RX-1541],1.89,0.91,> 3,0.22,1.26,> 3,1.78,> 3,2.96,2.86,1.26,0.47,0.53,0.37,> 3
Ic1ccc2ncnc(NCCCCc3ccccc3)c2c1 [RX-1670],> 3,1.51,> 3,> 3,> 3,> 3,0.62,> 3,0.88,> 3,0.43,1.06,1.35,1.53,> 3
FC(F)(F)c1ccccc1CNc1ncnc2ccc(Br)cc12 [RX-1260],> 3,2.25,> 3,> 3,> 3,> 3,0.69,> 3,> 3,> 3,0.74,> 3,> 3,> 3,> 3
Cc1cc(C)c(Nc2ncnc3ccc([N+](=O)[O-])cc23)c(C)c1 [RX-1122],2,2.39,1.33,1.42,2.55,0.88,0.57,1.3,1.1,1.01,0.63,0.73,1.35,1.09,1.11
Cn1cnc2cc3ncnc(NCCc4cccc(F)c4)c3cc21 [RX-1894],> 3,0.85,> 3,> 3,1.7,> 3,0.9,> 3,> 3,> 3,1.17,> 3,> 3,> 3,2.33
